The supplement of paper PMC11451515

Legend:
Settings in all cases: 48 h
SEM cells [1] = test: AUC of viability dose-response curve (% viability x log10 dose units); higher = less sensitive
Method in brief: (§1)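 Library compounds in DMSO were applied for 48 h at 37°C at 11 threefold doses (47 μM to 0.79 nM) to medium-adapted leukemia cells in 1536-well plates holding 500 or 1000 cells/well. Luminescence from CellTiter-Glo One was normalised plate by plate against DMSO and cell-free wells. Area under the curve came from trapezoidal integration of a log-logistic fit, after scaling curves that rose above full viability and discarding those that failed quality control. The fit had four parameters and used log10 doses.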

NOMO1 [2] = test: as above
Method in brief: as §1

P12-Ichikawa [3] = test: as above
Method in brief: as §1

SEM cells [4] = test: cell viability relative to DMSO control; higher = less cytotoxic
Method in brief: (§2)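 Before seeding, each leukemia line was adapted for at least four passages in each medium. NOMO1 or SEM cells (500 cells/well) and P12-Ichikawa cells (1000 cells/well) went into 1536-well plates at 5 μl, then received library compounds in DMSO by pin dosing across 11 threefold concentrations, 47 μM to 0.79 nM. Readout was CellTiter-Glo One luminescence after 48 h at 37°C, and viability is given as a per-plate percentage of DMSO wells, with cell-free wells as background.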

NOMO1 [5] = test: as above
Method in brief: as §2

P12-Ichikawa [6] = test: as above
Method in brief: as §2

Cn1cc(-c2ccc3nnc(C(F)(F)c4ccc5ncccc5c4)n3n2)cn1
AUC of viability dose-response curve
Settings | NOMO1 [2] | P12-Ichikawa [3] | SEM cells [1]
HPLM + 10% dialyzed FBS | 469 | 447 | 463
RPMI 5 mM glucose + 10% FBS | 435 | 452 | 469
RPMI 5 mM glucose + 10% dialyzed FBS | 470 | 454 | 455

cell viability [%]
Settings | NOMO1 [5] | P12-Ichikawa [6] | SEM cells [4]
HPLM + 10% dialyzed FBS, 0.000781 µM | 115 | 116 | 103
HPLM + 10% dialyzed FBS, 0.00234 µM | 99.1 | 117 | 117
HPLM + 10% dialyzed FBS, 0.00702 µM | 97.5 | 117 | 115
HPLM + 10% dialyzed FBS, 0.0211 µM | 107 | 116 | 99.6
HPLM + 10% dialyzed FBS, 0.0632 µM | 101 | 113 | 111
HPLM + 10% dialyzed FBS, 0.19 µM | 106 | 115 | 108
HPLM + 10% dialyzed FBS, 0.569 µM | 105 | 109 | 113
HPLM + 10% dialyzed FBS, 1.71 µM | 101 | 108 | 106
HPLM + 10% dialyzed FBS, 5.12 µM | 95.4 | 101 | 106
HPLM + 10% dialyzed FBS, 15.4 µM | 103 | 95.8 | 95.4
HPLM + 10% dialyzed FBS, 46.1 µM | 69.3 | 82.9 | 82
RPMI 5 mM glucose + 10% FBS, 0.000781 µM | 110 | 114 | 123
RPMI 5 mM glucose + 10% FBS, 0.00234 µM | 106 | 117 | 115
RPMI 5 mM glucose + 10% FBS, 0.00702 µM | 135 | 117 | 120
RPMI 5 mM glucose + 10% FBS, 0.0211 µM | 109 | 124 | 112
RPMI 5 mM glucose + 10% FBS, 0.0632 µM | 107 | 109 | 126
RPMI 5 mM glucose + 10% FBS, 0.19 µM | 106 | 113 | 132
RPMI 5 mM glucose + 10% FBS, 0.569 µM | 99.6 | 113 | 126
RPMI 5 mM glucose + 10% FBS, 1.71 µM | 94.9 | 106 | 123
RPMI 5 mM glucose + 10% FBS, 5.12 µM | 106 | 107 | 114
RPMI 5 mM glucose + 10% FBS, 15.4 µM | 96.6 | 101 | 121
RPMI 5 mM glucose + 10% FBS, 46.1 µM | 87.2 | 81.7 | 81.5
RPMI 5 mM glucose + 10% dialyzed FBS, 0.000781 µM | 87.3 | 119 | 96
RPMI 5 mM glucose + 10% dialyzed FBS, 0.00234 µM | 98.4 | 112 | 114
RPMI 5 mM glucose + 10% dialyzed FBS, 0.00702 µM | 111 | 120 | 104
RPMI 5 mM glucose + 10% dialyzed FBS, 0.0211 µM | 97.8 | 118 | 102
RPMI 5 mM glucose + 10% dialyzed FBS, 0.0632 µM | 99.2 | 113 | 105
RPMI 5 mM glucose + 10% dialyzed FBS, 0.19 µM | 98.6 | 119 | 111
RPMI 5 mM glucose + 10% dialyzed FBS, 0.569 µM | 119 | 118 | 98.6
RPMI 5 mM glucose + 10% dialyzed FBS, 1.71 µM | 108 | 112 | 97.2
RPMI 5 mM glucose + 10% dialyzed FBS, 5.12 µM | 99.5 | 101 | 94.8
RPMI 5 mM glucose + 10% dialyzed FBS, 15.4 µM | 96.2 | 102 | 90.5
RPMI 5 mM glucose + 10% dialyzed FBS, 46.1 µM | 81.3 | 85.6 | 67.2

CC(=O)N1CCN(c2ccc(OCc3nn(C)c(C)c3-c3cccc4c(CCCOc5cccc6ccccc56)c(C(=O)O)n(Cc5cccnc5)c34)cc2)CC1
AUC of viability dose-response curve
Settings | NOMO1 [2] | P12-Ichikawa [3] | SEM cells [1]
HPLM + 10% dialyzed FBS | 368 | 416 | 457
RPMI 5 mM glucose + 10% FBS | 355 | 418 | 440
RPMI 5 mM glucose + 10% dialyzed FBS | 376 | 445 | 464

cell viability [%]
Settings | NOMO1 [5] | P12-Ichikawa [6] | SEM cells [4]
HPLM + 10% dialyzed FBS, 0.000781 µM | 107 | 108 | 92.6
HPLM + 10% dialyzed FBS, 0.00234 µM | 130 | 116 | 91.9
HPLM + 10% dialyzed FBS, 0.00702 µM | 119 | 123 | 106
HPLM + 10% dialyzed FBS, 0.0211 µM | 117 | 122 | 112
HPLM + 10% dialyzed FBS, 0.0632 µM | 138 | 120 | 107
HPLM + 10% dialyzed FBS, 0.19 µM | 128 | 119 | 126
HPLM + 10% dialyzed FBS, 0.569 µM | 126 | 124 | 115
HPLM + 10% dialyzed FBS, 1.71 µM | 85.2 | 122 | 120
HPLM + 10% dialyzed FBS, 5.12 µM | 32 | 108 | 122
HPLM + 10% dialyzed FBS, 15.4 µM | 23.9 | 31.8 | 108
HPLM + 10% dialyzed FBS, 46.1 µM | 22.7 | 9.79 | 108
RPMI 5 mM glucose + 10% FBS, 0.000781 µM | 110 | 98.4 | 87.6
RPMI 5 mM glucose + 10% FBS, 0.00234 µM | 125 | 118 | 78
RPMI 5 mM glucose + 10% FBS, 0.00702 µM | 120 | 123 | 86.4
RPMI 5 mM glucose + 10% FBS, 0.0211 µM | 124 | 123 | 93.6
RPMI 5 mM glucose + 10% FBS, 0.0632 µM | 130 | 124 | 81.8
RPMI 5 mM glucose + 10% FBS, 0.19 µM | 129 | 125 | 103
RPMI 5 mM glucose + 10% FBS, 0.569 µM | 127 | 137 | 108
RPMI 5 mM glucose + 10% FBS, 1.71 µM | 67 | 135 | 115
RPMI 5 mM glucose + 10% FBS, 5.12 µM | 22.8 | 123 | 105
RPMI 5 mM glucose + 10% FBS, 15.4 µM | 19.6 | 28.2 | 104
RPMI 5 mM glucose + 10% FBS, 46.1 µM | 16 | 11 | 84.7
RPMI 5 mM glucose + 10% dialyzed FBS, 0.000781 µM | 118 | 107 | 101
RPMI 5 mM glucose + 10% dialyzed FBS, 0.00234 µM | 125 | 124 | 85.1
RPMI 5 mM glucose + 10% dialyzed FBS, 0.00702 µM | 130 | 121 | 115
RPMI 5 mM glucose + 10% dialyzed FBS, 0.0211 µM | 131 | 128 | 112
RPMI 5 mM glucose + 10% dialyzed FBS, 0.0632 µM | 136 | 128 | 119
RPMI 5 mM glucose + 10% dialyzed FBS, 0.19 µM | 139 | 123 | 127
RPMI 5 mM glucose + 10% dialyzed FBS, 0.569 µM | 129 | 136 | 112
RPMI 5 mM glucose + 10% dialyzed FBS, 1.71 µM | 123 | 129 | 115
RPMI 5 mM glucose + 10% dialyzed FBS, 5.12 µM | 24.9 | 134 | 109
RPMI 5 mM glucose + 10% dialyzed FBS, 15.4 µM | 19.5 | 91.1 | 113
RPMI 5 mM glucose + 10% dialyzed FBS, 46.1 µM | 21.2 | 25.5 | 104
